Assay results as given in patent US20140050779A1, “[…]-2 INHIBITORS AND USES THEREOF” (SINGAPORE HEALTH SERVICES PTE. LTD., priority 2011, published 2014).

Columns and labels:
TG-5 = experiment: Western blot of TG proteins in mouse scleral fibroblasts after muscarinic agents; format: cell-based; settings: 0.01-10 μM for 5 days
TG-1 [1] = experiment: Western blot of TG proteins in human scleral fibroblasts after muscarinic agents; format: cell-based; settings: 0.01-10 μM for 5 days
TG-1 [2] = experiment: Western blot of TG proteins in mouse scleral fibroblasts after muscarinic agents; format: cell-based; settings: 0.01-10 μM for 5 days
TG-3 = experiment: as above; format: cell-based; settings: 0.01-10 μM for 5 days
TG-2 = experiment: Western blot of TG proteins in human scleral fibroblasts after muscarinic agents; format: cell-based
Protocol: All cells used in examples described herein were between passages 2-4. Passaged cells were plated at a concentration of 2×10^5/mL into 6 well plates containing DMEM with 10% FBS. The cells were seen to attach to the bottom of the culture wells after 4 hours. Old media was removed from wells and 1 mL of drug was added with fresh full medium and incubated at 37° C. Fresh drugs were replaced daily consecutively for the next 5 days to avoid oxidation. The drugs/media was removed and wells were washed twice with 1×PBS. 200 μl of RIPA lysis buffer was added per well and incubated for 5 minutes and cells were scrapped into an eppendorf tube. The cells were stored at −20° C. until sonication. The cells were sonicated on ice thrice at 20% output power for 5 seconds each time and rested 1 minute in between each turn. Cell debris was spun down at 12000 rpm for 20 minutes. The supernatant was poured into a new eppendorf tube and cell concentrations were determined using the Dc Protein assay Kit (Bio-Rad, MA). Passaged cells were plated at a concentration of 1×10^5 into 6 well plates containing DMEM with 10% FBS. The cells were seen to attach to the bottom of the culture wells after 4 hours. Freshly prepared muscarinic agents' at base line, 0.1, 1, 10 and 100 μM concentrations were added for 5 days (Table 2). The culture medium was removed and fresh medium containing the same muscarinic drug added every day to avoid drug changes such as atropine oxidation. Cell lysate was collected for relative quantitative (q) PCR and protein analysis at day 5.
The cells were lysed by sonification in 1×RIPA lysis buffer (santa cruz biotechnology, Sc-24948) with 10 μl PMSF solution, 10 μl sodium orthovanadate solution and 20 μl protease inhibitor cocktail solution. After centrifugation at 20,000×g at 4° C. for 20 minutes, and the supernatant collected. The protein content in the supernatants was measured using the DC Protein Assay kit (Bio-Rad, MA) following the manufacturer's instructions. Samples were stored at −80° C. until assayed.
The mouse and human scleral fibroblasts were treated with atropine or carbachol at 0.01, 0.1, 1, 5 and 10 μM concentrations for 5 days. Following 5 days of treatment, the total cellular protein was extracted from these cells and TG proteins detected via Western blot analysis.
Human and, mouse scleral fibroblast proteins in the supernatant were separated by SDS-PAGE, transferred to nitrocellulose membranes, blocked in 5% BSA in TBST (10 mM Tris-HCl [pH 8.0], 150 mM NaCl, and […] Tween-20) for 2 hours at room temperature, and incubated with the same anti-TG-2 antibody described herein at a dilution of 1:1000 and anti β-tubulin antibodies used as a positive control, for 1 hour at room temperature. […]

hM1 = biological target: T1, hM1 (Homo sapiens, UniProt P11229); experiment: himbacine binding to cloned muscarinic receptor subtypes; settings: cloned receptor subtype; data not shown
T1 sequence (P11229 1-460): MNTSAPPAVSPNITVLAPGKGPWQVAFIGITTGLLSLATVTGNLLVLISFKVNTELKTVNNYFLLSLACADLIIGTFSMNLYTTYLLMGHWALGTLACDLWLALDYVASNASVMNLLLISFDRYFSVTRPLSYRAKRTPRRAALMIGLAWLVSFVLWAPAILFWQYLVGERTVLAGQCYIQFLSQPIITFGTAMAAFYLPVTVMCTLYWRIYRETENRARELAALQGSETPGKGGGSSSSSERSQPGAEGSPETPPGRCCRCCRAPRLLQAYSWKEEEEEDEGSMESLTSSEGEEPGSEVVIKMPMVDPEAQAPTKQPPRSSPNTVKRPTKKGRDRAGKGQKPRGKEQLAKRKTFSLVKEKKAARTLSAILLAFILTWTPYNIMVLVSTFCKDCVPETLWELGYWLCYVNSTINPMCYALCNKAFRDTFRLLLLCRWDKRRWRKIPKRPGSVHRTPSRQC

hM2 = biological target: T2, hM2 (Homo sapiens, UniProt P08172); experiment: biochemical
T2 sequence (P08172 1-466): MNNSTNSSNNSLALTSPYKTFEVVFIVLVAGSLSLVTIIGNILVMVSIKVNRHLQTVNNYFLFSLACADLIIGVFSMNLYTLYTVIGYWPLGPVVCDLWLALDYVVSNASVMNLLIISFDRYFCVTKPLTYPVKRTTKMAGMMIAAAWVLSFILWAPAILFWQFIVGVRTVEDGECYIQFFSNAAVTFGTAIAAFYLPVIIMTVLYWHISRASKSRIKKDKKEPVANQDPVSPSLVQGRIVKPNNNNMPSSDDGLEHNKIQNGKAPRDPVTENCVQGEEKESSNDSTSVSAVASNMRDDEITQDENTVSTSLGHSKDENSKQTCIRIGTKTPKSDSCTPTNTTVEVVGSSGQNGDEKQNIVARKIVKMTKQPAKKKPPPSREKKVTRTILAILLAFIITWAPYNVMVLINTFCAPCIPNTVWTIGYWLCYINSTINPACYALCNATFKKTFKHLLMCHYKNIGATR
Excerpt: In some embodiments, the TG-2 inhibitors described herein can target the respective TG-2 protein and/or the expression of TGM-2. In other embodiments, the TG-2 inhibitors can further target at least one muscarinic receptor, for example M2 or M3 or inhibit the expression of at least one muscarinic receptor for example, M2 or M3.

Compound | TG-5 protein level (TG-5) | TG-1 protein level (TG-1 [1]) | TG-1 protein level (TG-1 [2]) | TG-3 protein level (TG-3) | TG-2 protein level (TG-2; 0.01-10 μM for 5 days, Western blot) | Kd (hM1) [nM] | Kd (hM2) [nM] | TG-2 protein level (TG-2; specific muscarinic antagonists)
CN1[C@@H]2CC[C@H]1C[C@@H](OC(=O)C(CO)c1ccccc1)C2 (some centres unmarked) [atropine] | reduced | reduced | reduced | increased | reduced |  |  | 
C[C@@H]1OC(=O)[C@H]2C[C@H]3CCCC[C@@H]3[C@@H](/C=C/[C@H]3CCC[C@H](C)N3C)[C@@H]12 [himbacine] |  |  |  |  |  | 83 | 4 | significantly reduced
